Measurements published in US20240374610A1, “METHOD AND PHARMACEUTICAL COMPOSITION FOR TREATING OR ALLEVIATING GLIOMAS IN A SUBJECT” (Zhejiang University, priority 2023, published 2024).

Columns and labels:
[1] = tested on: CKO model-derived glioma cell lines 1483 and 1877; assay: Proliferation rate of CKO model-derived glioma cell lines (EdU incorporation assay); type: cell-based, mouse; details: for proliferation of tumor OPCs: 200 μM glutamate, 200 μM GABA or 15 mM KCl vs control, cell lines 1483 and 1877
Description: Cell lines were authenticated by tdTomato marker when histology analyzing. All cell lines tested negative for mycoplasma contamination.

peripheral immune cells = assay: Immune cells in peripheral blood under clozapine (FACS); type: in vivo, mouse; details: clozapine by oral or i.p. administration, three weeks
Experimental: Blood was collected by intracardial puncture from anaesthetized mice into heparinized 1 ml syringes. Heparin was used in a range of 30 units/ml. Red blood cells were lysed in ACK lysing buffer (Gibco, A10492) at room temperature for 5 min. Cell suspensions were spun down at 300 g for 5 min. The cell pellet was then washed with Hank's balanced salt solution (HBSS) and spun for 5 min at 300 g. The cells in the pellet (1-2×10^5 cells) were used in fluorescence assays. Antibodies used for flow cytometry were directed against the following mouse antigens: Pacific Blue anti-mouse CD45(30-F11), PE anti-mouse Ly-6G(1A8), PerCP/Cyanine5.5 anti-mouse CD11c, FITC anti-mouse CD19(1D3), APC anti-mouse CD3(17A2), APC/Cyanine7 anti-mouse/human CD11b(M1/70) from Biolegend. Dilution: 1: 200.

blood-brain-barrier = assay: Evans Blue dye assay of blood-brain barrier integrity; type: in vivo, mouse; details: WT mice, clozapine by drinking water or i.p.
Experimental: The protocol was adapted from Ludewig et al.^42 with some modifications. Mice were administrated with 200 μL Evans Blue (2%) by i.p injection. After six hours of EB injection, the mice were anaesthetized and then perfused with cold PBS. 100 mg tissue for each sample from multiple organs (as indicated in the FIG. 9g) was collected in 500 μL PBS and ground into tissue homogenate. 500 μL formamide was then add to the homogenate before being incubated in the 55° C. for 24 hours. After centrifugation, supernatants were collected for optical density detecting at 620 nm.

local resident microglia = assay: Granulocytes and macrophage/microglia in the brain under clozapine (CD15, Iba1, CD68 staining); type: in vivo, mouse
Experimental: All mouse frozen tissues were cryo-sectioned into 20 μm thickness. For routine staining, the slides were fixed in ice-cold 2% PFA for 15 minutes. After washed in 1×PBS (3 times, 10 minutes each), the slides were briefly rinsed with 1×PBT (0.3% Triton X-100 in 1×PBS) and then incubated with the blocking solution (5% normal donkey serum, 0.3% Triton X-100, 0.1% NaN3 in 1×PBS) for 20 minutes. The slides mounted with primary antibodies were then incubated in the wet box at 4° C. overnight. Next day, the slides were washed in 1×PBT (4 times, 10 minutes each) before incubated with secondary antibodies (diluted in 1×PBT) in foil-wrapped wet box at 4° C. overnight. The third day, the slides were washed in 1×PBT (4 times, 10 minutes each) and DAPI solution (25 ng/ml in 1×PBS, 20 minutes). After washing with 1×PBS for 5 minutes, the slides were mounted with the mounting solution (65% glycerol in 1×PBS) and covered with coverslips.

[2] = tested on: glioma cells from the CKO model; assay: RNA-Seq of glioma cells co-cultured with primary OB neurons and stimulated by IGF-1; type: cell-based, mouse; details: co-cultures stimulated by 20 ng/mL IGF-1
Experimental: OBs were dissected from P2-3 mouse pups and digested in 10 mL papain solution (1×EBSS (Sigma, E7510), 0.5 mM EDTA, 10 mM HEPES, 26 mM NaHCO3, 22.5 mM D(+)-glucose, 0.16 mg/mL L-cycteine, 20 units/mL papain (Worthington Biochem, LS003126), 250 μg/mL DNase I (Sigma, DN-25) in dd-water) for 30 min at 37° C. Papain solution was discarded and the tissue was triturated with 2 mL Diluted Trypsin Inhibitor Buffer (1×EBSS (Sigma, E7510), 10 mM HEPES, 26 mM NaHCO3, 1× ovomucoid (Worthington Biochem, LS003086), 250 μg/mL DNase I (Sigma, DN-25), 1 mg/mL BSA (equitech-bio, BAH62) in dd-water) by 1 mL pipette and was allowed to settle for 2 min. 1 mL upper cell suspension was carefully collected and additional 1 mL Diluted Trypsin Inhibitor Buffer was add to the tissue. The process was repeated until all Diluted Trypsin Inhibitor Buffer was consumed. […]
For sequencing of tumor cells from co-cultures, raw data was filtered by removing adapter with Cutadapt (Version 3.4) and quality control (not lower than 25). Clean reads were aligned to the reference genome Mus_musculus.GRCm39.dna.primary_assembly.fa (39.103) from Ensembl by STAR (Version 2.7.9a). Read counts were calculated by featureCounts (Version 2.0.1). The feature was selected as Exon, and only reads with mapping quality score greater than 25 were retained. […]

O=[N+]([O-])c1cc2nc(O)c(O)nc2cc1[N+](=O)[O-] [DQNX]
IGF1-promoted proliferation of tumor OPCs ([1]; 20 ng/mL IGF-1 plus 10 μM AMPA-receptor antagonist vs IGF-1 alone): did not affect

NCCCC(=O)O [GABA]
proliferation of tumor OPCs [1]: did not affect

N[C@@H](CCC(=O)O)C(=O)O [Glutamate]
proliferation of tumor OPCs [1]: did not affect

CN1CCN(C2=Nc3cc(Cl)ccc3Nc3ccccc32)CC1 [clozapine]
number of granulocytes in peripheral blood (peripheral immune cells): slightly but significantly reduced | number of macrophages in peripheral blood (peripheral immune cells): increased | integrity of the blood-brain-barrier (blood-brain-barrier): did not affect the integrity | number or activation of local resident microglia (local resident microglia; CKO model regardless of tumor stage, Iba1+ and CD68+ Iba1+): not affected | granulocytes (CD15) in the brain parenchyma (local resident microglia; WT, Omp-hM3Dq, Omp-hM4Di and CKO tumor mice with clozapine treatment): barely any granulocytes could be found

[Cl-].[K+] [potassium chloride]
proliferation of tumor OPCs [1]: did not affect

insulin-like growth factor-1 [IGF-1]
proliferation of tumor OPCs in vitro ([1]; 20 ng/mL IGF-1, glioma cell lines 1483 and 1877): significantly stimulated the proliferation | expression of RTK downstream genes such as Egr3/4 and Fosl2 [2]: significant upregulation | expression of neurotransmitter receptor genes including AMPARs in tumor OPCs [2]: did not affect the expression
